Measured values from publication PMC7044277 (Nature Communications, 2020).
Where “and” joins values, the source holds several entries; their conditions need not be identical. Identical values can stand only once.

Columns and labels:
Assay type in all cases: cell-based
DRD2 S1935.42G = target: T1, DRD2 S1935.42G (Homo sapiens, UniProt P14416, S193G); experiment: Gαi/o-mediated cAMP inhibition (GloSensor), mutant; settings: DRD2 Ser5.42Gly; G-protein assay
T1 construct: expressed in transfected cells; host or cells: HEK293T (ATCC CRL-11268)
T1 sequence (P14416 whole entry S193G): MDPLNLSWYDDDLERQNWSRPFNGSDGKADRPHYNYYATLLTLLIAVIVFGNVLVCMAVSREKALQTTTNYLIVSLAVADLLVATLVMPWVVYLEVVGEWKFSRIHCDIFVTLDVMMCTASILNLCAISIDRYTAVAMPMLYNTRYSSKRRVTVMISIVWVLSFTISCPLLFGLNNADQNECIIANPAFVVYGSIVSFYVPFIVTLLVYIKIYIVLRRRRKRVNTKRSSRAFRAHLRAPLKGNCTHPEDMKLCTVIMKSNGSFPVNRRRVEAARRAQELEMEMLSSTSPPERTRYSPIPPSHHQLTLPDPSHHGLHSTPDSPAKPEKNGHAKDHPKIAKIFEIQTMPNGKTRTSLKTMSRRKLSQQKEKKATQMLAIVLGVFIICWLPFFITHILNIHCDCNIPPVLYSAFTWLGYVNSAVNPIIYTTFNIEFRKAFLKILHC

DRD2 S1975.46G = target: T2, DRD2 S1975.46G (Homo sapiens, UniProt P14416, S197G); experiment: Gαi/o-mediated cAMP inhibition (GloSensor), mutant; settings: DRD2 Ser197^5.46Gly; G-protein assay
T2 construct: expressed in transfected cells; host or cells: HEK293T (ATCC CRL-11268)
T2 sequence (P14416 whole entry S197G): as the sequence (P14416 whole entry S193G) above, with G193S, S197G counted along it

DRD1 = DRD1 (Homo sapiens, UniProt P21728); experiment: β-arrestin2 recruitment (Tango); settings: agonist mode
Sequence of DRD1 (P21728 whole entry): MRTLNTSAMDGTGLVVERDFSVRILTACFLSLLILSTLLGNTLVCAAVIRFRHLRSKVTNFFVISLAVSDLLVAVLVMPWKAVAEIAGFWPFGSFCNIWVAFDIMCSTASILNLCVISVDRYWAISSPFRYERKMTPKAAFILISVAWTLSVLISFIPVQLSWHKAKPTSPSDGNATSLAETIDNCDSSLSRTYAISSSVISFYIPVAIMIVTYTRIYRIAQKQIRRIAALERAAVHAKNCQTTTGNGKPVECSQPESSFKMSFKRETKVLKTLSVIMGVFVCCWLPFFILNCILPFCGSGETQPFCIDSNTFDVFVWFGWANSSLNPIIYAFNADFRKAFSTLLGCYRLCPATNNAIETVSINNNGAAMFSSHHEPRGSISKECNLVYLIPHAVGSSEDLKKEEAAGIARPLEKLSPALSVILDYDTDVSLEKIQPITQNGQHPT

DRD5 = DRD5 (Homo sapiens, UniProt P21918); experiment: β-arrestin2 recruitment (Tango); settings: Fig_S10e, single replicates
Sequence of DRD5 (P21918 whole entry): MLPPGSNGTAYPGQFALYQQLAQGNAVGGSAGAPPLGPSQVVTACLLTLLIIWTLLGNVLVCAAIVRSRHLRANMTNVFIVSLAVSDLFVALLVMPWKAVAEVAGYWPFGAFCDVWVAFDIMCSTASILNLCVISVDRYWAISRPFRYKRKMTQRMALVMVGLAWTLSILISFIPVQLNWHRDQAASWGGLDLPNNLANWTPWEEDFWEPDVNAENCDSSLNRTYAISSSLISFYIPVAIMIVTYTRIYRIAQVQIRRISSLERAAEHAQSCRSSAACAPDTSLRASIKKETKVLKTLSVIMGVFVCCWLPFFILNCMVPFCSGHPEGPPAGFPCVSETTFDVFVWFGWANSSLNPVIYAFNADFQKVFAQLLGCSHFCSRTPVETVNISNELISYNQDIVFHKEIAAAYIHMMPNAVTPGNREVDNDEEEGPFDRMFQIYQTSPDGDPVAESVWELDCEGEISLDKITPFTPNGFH

5HT1D = 5HT1D (Homo sapiens, UniProt P28221); experiment: β-arrestin2 recruitment (Tango); settings: agonist activity only at high concentrations
Sequence of 5HT1D (P28221 whole entry): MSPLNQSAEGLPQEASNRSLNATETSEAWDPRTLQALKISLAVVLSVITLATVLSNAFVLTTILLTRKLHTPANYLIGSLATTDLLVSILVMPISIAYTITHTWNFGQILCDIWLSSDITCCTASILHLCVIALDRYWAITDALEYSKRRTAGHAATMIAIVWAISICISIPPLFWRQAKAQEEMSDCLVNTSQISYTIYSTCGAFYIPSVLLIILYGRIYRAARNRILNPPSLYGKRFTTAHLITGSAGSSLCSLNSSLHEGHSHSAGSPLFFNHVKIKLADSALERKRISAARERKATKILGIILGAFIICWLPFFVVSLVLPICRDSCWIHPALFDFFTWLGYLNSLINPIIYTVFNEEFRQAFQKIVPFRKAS

5HT2C = target: T3, 5HT2C (Homo sapiens, UniProt P28335); experiment: β-arrestin2 recruitment (Tango); settings: Fig_S10m; for β-arrestin2 recruitment response in presence of serotonin (replicate values): +10μM serotonin; for β-arrestin2 recruitment response (dose-response source data, replicate values): drug alone
T3 sequence (P28335 33-458): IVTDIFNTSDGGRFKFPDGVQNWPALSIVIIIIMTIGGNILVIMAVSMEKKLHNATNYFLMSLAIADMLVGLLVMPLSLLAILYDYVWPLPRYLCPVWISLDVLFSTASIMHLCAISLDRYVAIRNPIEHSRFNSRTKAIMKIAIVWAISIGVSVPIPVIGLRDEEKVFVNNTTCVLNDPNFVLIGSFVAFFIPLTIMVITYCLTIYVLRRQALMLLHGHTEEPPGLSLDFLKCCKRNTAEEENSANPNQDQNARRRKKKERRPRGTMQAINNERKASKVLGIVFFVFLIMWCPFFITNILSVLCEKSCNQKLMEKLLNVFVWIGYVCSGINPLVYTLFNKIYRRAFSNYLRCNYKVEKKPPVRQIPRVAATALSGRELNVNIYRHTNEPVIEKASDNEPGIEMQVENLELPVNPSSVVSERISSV

For `CCOc1cccc2cc([C@H](C)NCC3(O)CCCCC3)oc12` [O4SE6], the “agonism after serine to glycine substitution” value (DRD2 S1935.42G) was “impaired”, the “agonism after serine to glycine substitution” value (DRD2 S1975.46G) was “impaired” and the “Fig_S10d concentration-response source data, compound alone (replicates)” value (DRD1; Log[Drug] -6.52) was 1.081. For the same compound, the “Fig_S10d concentration-response source data, compound alone (replicates)” value (DRD1; Log[Drug] -7) was 1.077 and 2.449 and 0.7206 and 0.01093 and 0.2616 and 0.5709 and 0.4663 and -0.4785 and 0.5459, the “Fig_S10d concentration-response source data, compound alone (replicates)” value (DRD1; Log[Drug] -7.52) was 0.3818 and 0.7249 and 2.612 and 1.107 and 0.1296 and 1.638 and 0.2406 and 0.3904 and 0.4963 and the “Fig_S10d concentration-response source data, compound alone (replicates)” value (DRD1; Log[Drug] -8) was 4.337 and 0.3775 and 1.059 and 0.9723 and 0.606 and 0.3811 and 0.01404 and 0.5796 and 0.0103. For the same compound, the “Fig_S10d concentration-response source data, compound alone (replicates)” value (DRD1; Log[Drug] -8.52) was 1.411 and 0.7206 and 3.809 and 2.0766 and 0.164 and 0.2319 and -0.01873 and 0.09082 and 0.3165, the “Fig_S10d concentration-response source data, compound alone (replicates)” value (DRD1; Log[Drug] -9) was -0.3131 and 1.5871 and 3.29 and -0.05311 and -0.07654 and 0.3577 and 0.09363 and 0.0515 and 0.4204 and the “Fig_S10d concentration-response source data, compound alone (replicates)” value (DRD1; Log[Drug] -9.52) was 3.9849 and 1.227 and 1.561 and 0.082 and -0.1093 and 0.5131 and -0.06273 and 0.7238 and 1.497. For the same compound, the “Fig_S10d concentration-response source data, compound alone (replicates)” value (DRD1; Log[Drug] -10) was 3.981 and 1.729 and 5.684 and -0.04842 and 0.2671 and 0.3249 and 0.426 and 0.4251 and 0.5346, the “Fig_S10d concentration-response source data, compound alone (replicates)” value (DRD1; Log[Drug] -10.52) was 0.712 and 1.746 and 4.122 and 0.3608 and 0.264 and 0.2335 and 1.101 and -0.02996 and 0.2809 and the “Fig_S10d concentration-response source data, compound alone (replicates)” value (DRD1; Log[Drug] -11) was 2.269 and 1.742 and 3.972 and 0.1742 and 0.3296 and 0.01406 and 0.6835 and 1.257 and -0.2856. For the same compound, the “Fig_S10d concentration-response source data, compound alone (replicates)” value (DRD1; Log[Drug] -11.52) was 0.3861 and 1.068 and 2.775 and -0.2327 and -0.01484 and 0.1414 and 0.7734 and -0.7734 and -0.2032, the “Fig_S10d concentration-response source data, compound alone (replicates)” value (DRD1; Log[Drug] -12) was 1.754 and 0.5705 and -0.2917 and 0.1156 and 0.2702 and 0.1429 and -0.6489 and -0.1919 and -0.08146 and the “β-arrestin2 recruitment response, agonist mode (normalized)” value (DRD5; Log[Drug] -6.52) was -0.08982. The “β-arrestin2 recruitment response, agonist mode (normalized)” value (DRD5; Log[Drug] -7) was -2.193 and 0.1162 and 2.002 and 1.631 and 1.978 and 0.5459 and 0.4001 and 1.786 and 0.382, the “β-arrestin2 recruitment response, agonist mode (normalized)” value (DRD5; Log[Drug] -7.52) was -0.08982 and 3.931 and 2.6523 and 1.599 and 1.463 and 1.719 and -0.1199 and 3.905 and 0.3346 and the “β-arrestin2 recruitment response, agonist mode (normalized)” value (DRD5; Log[Drug] -8) was -0.07925 and -1.147 and -0.7291 and 1.435 and 1.941 and 1.528 and 1.952 and 2.3308 and 0.6078. The “β-arrestin2 recruitment response, agonist mode (normalized)” value (DRD5; Log[Drug] -8.52) was -0.1004 (2×) and 1.601 and 1.441 and 1.882 and 1.748 and 1.175 and 1.334 and 1.6784, the “β-arrestin2 recruitment response, agonist mode (normalized)” value (DRD5; Log[Drug] -9) was 3.899 and 5.394 and 1.786 and 1.099 and 0.04193 and 2.45 and 0.1533 and 0.5646 and 0.6189 and the “β-arrestin2 recruitment response, agonist mode (normalized)” value (DRD5; Log[Drug] -9.52) was 2.219 and 0.0951 and 1.997 and 0.5791 and 1.124 and 2.067 and 5.639 and 0.941 and -0.06273. For the same compound, the “β-arrestin2 recruitment response, agonist mode (normalized)” value (DRD5; Log[Drug] -10) was -0.7133 and 0.5389 and 5.595 and 1.6 and 2.167 and 2.288 and 0.7068 and 0.5423 and 3.676, the “β-arrestin2 recruitment response, agonist mode (normalized)” value (DRD5; Log[Drug] -10.52) was 0.1321 and 0.1268 and 0.9299 and 1.442 and 0.235 and 1.403 and 0.9967 and 3.2411 and 1.093 and the “β-arrestin2 recruitment response, agonist mode (normalized)” value (DRD5; Log[Drug] -11) was 0.1268 and 0.1004 and 7.307 and 0.5831 and 0.6598 and 1.285 and 1.949 and 0.03067 and 2.569. The “β-arrestin2 recruitment response, agonist mode (normalized)” value (DRD5; Log[Drug] -11.52) was 3.508 and 1.358 and 1.781 and 0.8196 and 0.1076 and 1.003 and 0.8127 and 3.51 and 1.499, the “β-arrestin2 recruitment response, agonist mode (normalized)” value (DRD5; Log[Drug] -12) was -0.3064 and 5.8435 and 1.717 and 0.4312 and 3.455 and 0.3038 and 0.3541 and 3.032 and 0.3527 and the “concentration at which the receptor is activated” value (5HT1D) was “over 1 μM”. The “β-arrestin2 recruitment response in presence of serotonin (replicate values)” value (5HT2C; Log[Drug] -5) was 45.7461 and 51.1482 and 53.4841 and 61.6893 and 54.4017 and 57.753 and 67.2866 and 83.7427 and 85.1445, the “β-arrestin2 recruitment response (dose-response source data, replicate values)” value (5HT2C; Log[Drug] -5) was -3.262 and -0.5555 and 0.5642 and 1.204 and -0.4664 and 1.061 and -2.805 and 1.039 and 3.566 and the “β-arrestin2 recruitment response in presence of serotonin (replicate values)” value (5HT2C; Log[Drug] -5.52) was 76.8132 and 54.1781 and 71.9421 and 67.2323 and 56.1903 and 49.3738 and 64.9568 and 69.9468 and 71.0617. The “β-arrestin2 recruitment response (dose-response source data, replicate values)” value (5HT2C; Log[Drug] -5.52) was -3.477 and -1.313 and -1.505 and -0.3021 and 0.7731 and -0.1754 and 1.049 and -1.9165 and -0.666, the “β-arrestin2 recruitment response in presence of serotonin (replicate values)” value (5HT2C; Log[Drug] -6) was 57.6708 and 60.6404 and 63.9932 and 75.4508 and 75.7722 and 57.215 and 86.3739 and 65.9717 and 77.801 and the “β-arrestin2 recruitment response (dose-response source data, replicate values)” value (5HT2C; Log[Drug] -6) was 0.1892 and -1.167 and -2.9638 and 0.5481 and 0.639 and 4.5826 and 1.774 and -1.813 and -1.0517. The “β-arrestin2 recruitment response in presence of serotonin (replicate values)” value (5HT2C; Log[Drug] -6.52) was 49.4392 and 65.2785 and 58.4136 and 69.39 and 55.9424 and 71.2915 and 76.7849 and 85.9817 and 94.9705.
